According to US8383637B2, “2-amino-quinazoline derivatives useful as inhibitors of β-secretase (BACE)” (Jansssen Pharmaceutica N.V., priority 2004, dated 2013):
Read-outs that look alike come from different tables or passages of the source.

Key:
[1] = target: T1, β-secretase(BACE) (Homo sapiens, UniProt P56817); test: BACE Assay-2 (FS1 substrate, IC50 and Ki); assay type: biochemical; details: procedure of Example 159, FS1 substrate; read-out: Ki μM (159)
T1 construct: purchased Panvera
Description: The FS1-substrate stock solution was prepared in DMSO as a 10 mg/mL solution. The FS1-substrate working solution was prepared by diluting the 10 mg/mL stock solution with substrate assay buffer to a final concentration of 300 μg/mL. The β-secretase (BACE) working solution was prepared by diluting a 0.83 mg/mL BACE stock solution with enzyme assay buffer to a final concentration of 4 μg/mL.
Test compounds were dissolved in DMSO at 10 mM.
The procedure for this assay was as follows: 15 μL of BACE working solution was pipetted into each well of a 96-well plate. To each well was then pipetted 2 μL of test compound at the selected concentration. Test compound and BACE were then mixed with a pipettor and incubated for 20 min at room temperature. To each well was then added 10 μL of the FS1 substrate working solution.
The procedure for the positive control was as follows: 15 μL of BACE working solution was pipetted into each well to be used as a positive control. To each well was then pipetted 2 μL of vehicle. Vehicle and BACE were then mixed with a pipettor and incubated for 20 min at room temperature. To each well was then added 10 μL of the FS1 substrate working solution.
For test compounds, measured at multiple concentrations, the measured T0 and T60 values were used to calculate an IC50 value using Graphpad Software (or PIR). For test compounds, Ki inhibition was determined as follows: For each compound concentration and positive control, rate of cleavage of substrate (Vi, where i=compound concentration in μM) was determined as Δ Fluorescence/Δ time (min). Cleavage rates (Vi) were plotted as a function of inhibitor concentration in μM [I]. The Ki was then determined by fitting the following equation to the graph of [I] vs Vi Y=aVmax/(50+24*(1+X/Ki)),

[2] = target: T1, β-secretase(BACE); test: BACE FS1% Inhibition Assay; assay type: biochemical; details: FS1 substrate
In short: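 Percent inhibition at each tested concentration, referenced to enzyme-free blank and vehicle-only positive control. Reaction: compound and BACE (4 μg/mL working stock) mixed 20 min at room temperature before FS1 substrate (300 μg/mL working stock), then 1 h at room temperature.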

[3] = 0.3 μM test compound, read-out: % Inhibition (FS)
[4] = 1 μM test compound, read-out: % Inhibition (FS)
[5] = 3 μM test compound, read-out: % Inhibition (FS)
[6] = 0.3 μM test compound, read-out: % Inhibition (FS) 0.3 μM
[7] = 1 μM test compound, read-out: % Inhibition (FS) 1 μM
[8] = 3 μM test compound, read-out: % Inhibition (FS) 3 μM

T1 sequence (P56817 46-501): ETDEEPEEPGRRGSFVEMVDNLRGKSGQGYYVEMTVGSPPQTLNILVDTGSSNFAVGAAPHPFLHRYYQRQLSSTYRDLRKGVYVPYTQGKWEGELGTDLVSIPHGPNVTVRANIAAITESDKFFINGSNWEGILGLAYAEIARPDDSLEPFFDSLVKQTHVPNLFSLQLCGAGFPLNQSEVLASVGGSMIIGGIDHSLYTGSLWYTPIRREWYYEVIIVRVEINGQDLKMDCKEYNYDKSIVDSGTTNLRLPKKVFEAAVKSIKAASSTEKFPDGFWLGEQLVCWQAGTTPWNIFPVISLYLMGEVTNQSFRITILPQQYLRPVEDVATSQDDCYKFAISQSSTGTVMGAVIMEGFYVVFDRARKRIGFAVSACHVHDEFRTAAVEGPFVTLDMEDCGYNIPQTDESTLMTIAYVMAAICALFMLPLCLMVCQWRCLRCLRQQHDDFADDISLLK

| Ki [1] | % Inhibition (FS) 0.3 μM ([2]; 0.3 μM test compound) | % Inhibition (FS) 1 μM ([2]; 1 μM test compound) | % Inhibition (FS) 3 μM ([2]; 3 μM test compound) | Compound | also measured |
| --- | --- | --- | --- | --- | --- |
| 0.013 µM |  |  |  | NC1=Nc2ccc(Oc3ccccc3)cc2CN1[C@@H](CCC(=O)N(CC(=O)O)C1CCCCC1)C1CCCCC1 [Compound 768, {[4-(2-Amino-6-phenoxy-4H-quinazolin-3-yl)-4S-cyclohexyl-butyryl]-cyclohexyl-amino}-acetic acid] | inhibition at 0.3 µM [2, 3]: 122%; inhibition at 1 µM [2, 4]: 120%; inhibition at 3 µM [2, 5]: 126% |
| 0.301 µM |  |  |  | COC(=O)[C@@H](COCc1ccccc1)N(C)C(=O)CC[C@@H](C1CCOCC1)N1Cc2cc(Oc3ccccc3)ccc2N=C1N [Compound 783] | inhibition at 0.3 µM [2, 3]: 109%; inhibition at 1 µM [2, 4]: 110%; inhibition at 3 µM [2, 5]: 121% |
| 0.52 µM |  |  |  | COc1ccccc1C(=O)NCCN1Cc2cc(Oc3ccccc3)ccc2N=C1N [Compound 216] | inhibition at 0.3 µM [2, 6]: < 30%; inhibition at 1 µM [2, 7]: 45%; inhibition at 3 µM [2, 8]: 91% |
| 0.011 µM |  |  |  | CN(C(=O)CCC(C1CCOCC1)N1Cc2cc(Oc3ccccc3)ccc2N=C1N)C1CCCCC1 (stereo not drawn) [Compound 619] | inhibition at 0.3 µM [2, 6]: 119%; inhibition at 1 µM [2, 7]: 118%; inhibition at 3 µM [2, 8]: 125% |
| 0.0065 µM |  |  |  | CN(C(=O)CC[C@@H](C1CCOCC1)N1Cc2cc(Oc3ccccc3)ccc2N=C1N)C1CCCCC1 [Compound 709, (S)-enantiomer of 4-(2-Amino-6-phenoxy-4H-quinazolin-3-yl)-N-cyclohexyl-N-methyl-4-(tetrahydro-pyran-4-yl)-butyramide] | inhibition at 0.3 µM [2, 3]: 141%; inhibition at 1 µM [2, 4]: 143%; inhibition at 3 µM [2, 5]: 139% |
| 0.18 µM |  |  |  | CN(C(=O)c1cccc(C(C2CCCCC2)N2Cc3cc(Oc4ccccc4)ccc3N=C2N)c1)C1CCCCC1 (stereo not drawn) [Compound 534] | inhibition at 0.3 µM [2, 6]: 54%; inhibition at 1 µM [2, 7]: 103%; inhibition at 3 µM [2, 8]: 126% |
| 0.43 µM |  |  |  | CN(CCc1ccccc1)C(=O)CC[C@@H](C1CCCCC1)N1Cc2cc(-c3ccccc3F)ccc2N=C1N [Compound 727] | % Inhibition (FS) ([2]; 0.3 μM test compound): 46%; % Inhibition (FS) ([2]; 1 μM test compound): 80%; % Inhibition (FS) ([2]; 3 μM test compound): 137% |
| 0.13 µM |  |  |  | COc1ccccc1-c1ccc2c(c1)CN(C(CCC(=O)N(C)C1CCCCC1)C1CCCCC1)C(N)=N2 (single isomer, unassigned) [Compound 530] | inhibition at 0.3 µM [2, 6]: < 30%; inhibition at 1 µM [2, 7]: 80%; inhibition at 3 µM [2, 8]: 118% |
| 1.1 µM |  |  |  | CN(C(=O)c1cccc(CN2Cc3cc(-c4csc5ccccc45)ccc3N=C2N)c1)C1CCCCC1 [Compound 265] | inhibition at 0.3 µM [2, 6]: < 30%; inhibition at 1 µM [2, 7]: 55%; inhibition at 3 µM [2, 8]: 92% |
| 0.49 µM |  |  |  | NC1=Nc2ccc(-c3cccc(CO)c3)cc2CN1CCNC(=O)CC1CCCC1 [Compound 583] | inhibition at 0.3 µM [2, 6]: 40%; inhibition at 1 µM [2, 7]: 56%; inhibition at 3 µM [2, 8]: 86% |
| 0.175 µM |  |  |  | COC(=O)[C@H]1CC[C@@H](N(C)C(=O)CC[C@@H](C2CCCCC2)N2Cc3cc(Oc4ccccc4)ccc3N=C2N)CC1 [Compound 761] | inhibition at 0.3 µM [2, 3]: 51%; inhibition at 1 µM [2, 4]: 91%; inhibition at 3 µM [2, 5]: 112% |
| 1.04 µM |  |  |  | CC(C)N(C(=O)CCN1Cc2cc(Oc3ccccc3)ccc2N=C1N)C1CCCCC1 [Compound 179] | inhibition at 0.3 µM [2, 6]: < 30%; inhibition at 1 µM [2, 7]: 54%; inhibition at 3 µM [2, 8]: 85% |
|  | <30% | <30% | <30% | CC(=O)Nc1ccc(C(=O)NCCN2Cc3cc(-c4cccc(CO)c4)ccc3N=C2N)cc1 [Compound 593] |  |
|  | <30% | <30% | 41% | CC(C)(C)OC(=O)N1CCC(CN2Cc3cc(Oc4ccccc4)ccc3N=C2N)CC1 [Compound 509] |  |
|  | <30% | <30% | <30% | CSc1ccccc1Oc1ccc2c(c1)CN(Cc1cccc(C(=O)N(C)C3CCCCC3)c1)C(N)=N2 [Compound 474] |  |
|  |  |  |  | COc1ccccc1-c1ccc2c(c1)CN([C@@H](CCC(=O)N(C)Cc1cnn(-c3ccccc3)c1)C1CCCCC1)C(N)=N2 [Compound 717] | % Inhibition (FS) ([2]; 0.3 μM test compound): 33%; % Inhibition (FS) ([2]; 1 μM test compound): 39%; % Inhibition (FS) ([2]; 3 μM test compound): 72% |

| Ki [1] | % Inhibition (FS) 0.3 μM ([2]; 0.3 μM test compound) | % Inhibition (FS) 1 μM ([2]; 1 μM test compound) | % Inhibition (FS) 3 μM ([2]; 3 μM test compound) | Compound | also measured |
| --- | --- | --- | --- | --- | --- |
|  | <30% | <30% | 62% | NC1=Nc2ccc(Oc3ccccc3)cc2CN1[C@H](CNC(=O)C1CCCCC1)C1CCCCC1 [Compound 484] |  |
|  | <30% | 39% | 38% | CN(C(=O)c1cccc(CN2Cc3cc(-c4ccc(C5CCCCC5)cc4)ccc3N=C2N)c1)C1CCCCC1 [Compound 267] |  |
|  | <30% | 30% | 84% | CSc1ccccc1-c1ccc2c(c1)CN(CCNC(=O)C1CCCCC1)C(N)=N2 [Compound 540] |  |
|  | <30% | <30% | 72% | Cc1cc(C)cc(Sc2ccc3c(c2)CN(Cc2cccc(C(=O)N(C)C4CCCCC4)c2)C(N)=N3)c1 [Compound 409] |  |
|  | <30% | <30% | <30% | CCCC(=O)NCCN1Cc2cc(-c3cncnc3)ccc2N=C1N [Compound 569] |  |
|  | <30% | 39% | 67% | NC1=Nc2ccc(Oc3ccccc3)cc2CN1Cc1cccc(C(=O)N2CCCCC2)c1 [Compound 443] |  |
|  |  |  |  | CC(C)(C)C(=O)NCCN1Cc2cc(Br)ccc2N=C1N [Compound 809] | inhibition at 0.3 µM [2, 3]: < 30%; inhibition at 1 µM [2, 4]: < 30%; inhibition at 3 µM [2, 5]: 32% |
|  | <30% | <30% | <30% | CN(C)c1ccc(Nc2ccc3c(c2)CN(Cc2cccc(C(=O)N(C)C4CCCCC4)c2)C(N)=N3)cc1 [Compound 438] |  |
|  | <30% | 49% | 40% | Cc1cc(C)cc(Oc2ccc3c(c2)CN(Cc2cccc(C(=O)N(C)C4CCCCC4)c2)C(N)=N3)c1 [Compound 228] |  |
|  |  |  |  | NC1=Nc2ccc(-c3ccccc3Cl)cc2CN1CCNC(=O)C1CCOCC1 [Compound 689] | % Inhibition (FS) ([2]; 0.3 μM test compound): 33%; % Inhibition (FS) ([2]; 1 μM test compound): 82%; % Inhibition (FS) ([2]; 3 μM test compound): 102% |
|  | <30% | <30% | <30% | COc1ccccc1-c1ccc2c(c1)CN(CCNC(=O)CCCN)C(N)=N2 [Compound 494] |  |
|  |  |  |  | NC1=Nc2ccc(Oc3ccccc3)cc2CN1Cc1cccc(C(=O)O)c1 [Compound 805] | inhibition at 0.3 µM [2, 3]: < 30%; inhibition at 1 µM [2, 4]: < 30%; inhibition at 3 µM [2, 5]: < 30% |
|  | <30% | <30% | <30% | NC1=Nc2ccc(-c3cncnc3)cc2CN1CCNC(=O)C1CCCCC1 [Compound 575] |  |
|  | <30% | <30% | <30% | CS(=O)(=O)Nc1ccccc1-c1ccc2c(c1)CN(CCNC(=O)C1CCCCC1)C(N)=N2 [Compound 539] |  |
|  |  |  |  | COc1ccccc1-c1ccc2c(c1)N=C(N)N(CCC(=O)NC1C3CC4CC(C3)CC1C4)C2 (stereo not drawn) [Compound 617, N-Adamantan-2-yl-3-[2-amino-7-(2-methoxy-phenyl)-4H-quinazolin-3-yl]-propionamide] | inhibition at 0.3 µM [2, 6]: < 30%; inhibition at 1 µM [2, 7]: 34%; inhibition at 3 µM [2, 8]: 41% |
